Measured values reported in patent publication US4906565A, “Method for the selective detection of microbial nucleotides” (Minnesota Mining and Manufacturing Company, priority 1986, dated 1990).

What was measured:
Type in all cases: biochemical
[1] = target: T1, firefly luciferase (Photinus pyralis, UniProt P08659); test: Effect of inhibitor on the bioluminescent assay of ATP
T1 construct: purchased Lumac/3M Lumit PM
Description: Assay: from each sample triplicate 100 μl aliquots were taken. In those aliquots ATP was measured as described.
Assay: from each sample triplicate 100 μl aliquots were taken. ATP in those aliquots was measured as described.
Assay: From each sample triplicate 100 μl aliquots were taken and ATP was measured as described.
(§1) Protocol: Eight samples were prepared using materials described above and previously, as shown in TABLE 7-1 and incubated for various periods of time (i.e., 0, 5, 10 and […]) before aliquots were taken and assayed as described.
(§2) Protocol: Increasing concentrations of hexokinase, with and without PCMPSA were prepared according to TABLE 8-1 using materials described above and previously.

[2] = tested on: hexokinase; test: Inhibition of hexokinase by PCMPSA, bioluminescent ATP assay; settings: PCMPSA 1.0 mM
Description: as §1, §2

[3] = tested on: glycerokinase; test: Inhibition of glycerokinase by PCMPSA in milk / orange juice samples; settings: PCMPSA 0.5 mM; for % Control: control = same without glycerol; for RLU: milk/FRA, ATP added in SRA, 15 seconds
Description: Protocol: Samples were prepared containing: 1000 μl milk (local distributor, half-cream, sterilized); 800 μl FRA, 200 μl of a commercially available first releasing agent which is prepared in buffer for use with samples such as fruit juices (F-NRS, Lumac/3M); and 2.45 mM MgSO4. Glycerol, if present, was at a final concentration of 1.47 mM. ATP (10 mg/ml) was added in SRA to begin each assay, and PCMPSA if present, was also in that SRA aliquot in an amount sufficient to yield a final concentration of 0.5 mM.
(§3) To begin the assay, 100 μl of SRA/ATP ±PCMPSA was added to 50 μl of the appropriate sample. After 15 seconds (the period normally allowed for microbial nucleotide extraction using SRA) 100 μl Luciferase-luciferin solution was added and ATP was measured as described earlier.
(§4) Protocol: Samples with orange juice were prepared with 500 μl orange juice (Riedel, Netherlands, no preservatives, pasteurized), 500 μl buffered FRA, 3 mM glycerol, and with or without 0.5 mM PCMPSA. These were incubated over 0, 5, 10 and 20 minutes at four different glycerokinase concentrations.
(§5) Samples with milk were prepared similarly, but using 500 μl raw milk (fresh, local farmer) and 500 μl FRA in place of buffered FRA.

[4] = target: T1, firefly luciferase; test: Effect of inhibitor on the bioluminescent assay of ATP; remark: listed apart in the source
[5] = target: T2, acetate kinase (Escherichia coli, UniProt P0A6A3); test: Inhibition of acetate kinase by PCMPSA; settings: PCMPSA 0.5 mM
T2 construct: purchased Boehringer Mannheim
T2 sequence (P0A6A3 1-400): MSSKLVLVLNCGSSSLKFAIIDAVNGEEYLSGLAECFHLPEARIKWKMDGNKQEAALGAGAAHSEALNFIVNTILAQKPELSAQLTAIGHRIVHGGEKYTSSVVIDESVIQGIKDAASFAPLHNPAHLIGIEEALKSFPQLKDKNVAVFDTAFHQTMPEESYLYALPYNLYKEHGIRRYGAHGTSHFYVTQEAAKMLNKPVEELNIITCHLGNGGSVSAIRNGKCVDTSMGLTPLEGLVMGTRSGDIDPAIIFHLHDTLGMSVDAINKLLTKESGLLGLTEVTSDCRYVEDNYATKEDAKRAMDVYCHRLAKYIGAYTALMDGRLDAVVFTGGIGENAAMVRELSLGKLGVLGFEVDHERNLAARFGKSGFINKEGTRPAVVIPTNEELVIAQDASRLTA
Description: Acetate kinase was added to initiate enzyme activity. […] ATP in those aliquots was assayed as described.

[6] = ATP inactivation by glycerokinase or apyrase in milk / orange juice samples; settings: apyrase 0.096 U/mL; raw milk:FRA 500:500 μl
Description: Protocol: Four samples were prepared as shown in TABLE 11-1 using materials described above and earlier, and aliquots taken at 0, 2.5, 5, 10 and 20 minutes. […]
as §3, §4, §5

[7] = PCMPSA 1.0 mM alone, no hexokinase, buffer
[8] = PCMPSA 1.0 mM alone, no hexokinase, in SRA
[9] = glycerokinase 0.42 U/ml, glycerol 1.47 mM
[10] = glycerokinase 1.04 U/ml, glycerol 1.47 mM
[11] = glycerokinase 2.06 U/ml, glycerol 1.47 mM
[12] = orange juice, glycerokinase 0.85 U/ml
[13] = orange juice, glycerokinase 2.12 U/ml
[14] = orange juice, glycerokinase 4.25 U/ml
[15] = raw milk, glycerokinase 0.85 U/ml
[16] = raw milk, glycerokinase 2.12 U/ml
[17] = raw milk, glycerokinase 4.25 U/ml
[18] = acetate kinase 1.7 U/ml, magnesium acetate 3 mM, FRA

T1 sequence (P08659 whole entry): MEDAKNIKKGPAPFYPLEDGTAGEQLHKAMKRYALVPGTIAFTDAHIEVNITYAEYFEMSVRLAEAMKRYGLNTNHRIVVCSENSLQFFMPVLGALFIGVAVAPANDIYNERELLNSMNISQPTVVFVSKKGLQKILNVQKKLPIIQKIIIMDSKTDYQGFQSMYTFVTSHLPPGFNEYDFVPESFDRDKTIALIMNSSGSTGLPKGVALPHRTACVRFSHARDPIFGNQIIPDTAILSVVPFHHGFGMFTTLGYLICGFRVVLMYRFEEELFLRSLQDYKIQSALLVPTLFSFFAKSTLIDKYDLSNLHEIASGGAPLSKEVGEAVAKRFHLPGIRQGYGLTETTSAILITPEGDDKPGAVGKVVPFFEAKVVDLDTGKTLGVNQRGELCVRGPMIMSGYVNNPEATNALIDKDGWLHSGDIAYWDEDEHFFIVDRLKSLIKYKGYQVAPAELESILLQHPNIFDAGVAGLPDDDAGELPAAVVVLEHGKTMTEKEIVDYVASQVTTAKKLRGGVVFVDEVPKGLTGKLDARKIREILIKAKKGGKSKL

In the case of `O=S(=O)(O)c1cc[c]([Hg][Cl])cc1` [PCMPSA, p-chloromercuriphenylsulfonic acid], the “RLU 10 min.” value [1, 7] is reported as 29569 RLU, the “RLU 15 min.” value [1, 7] is reported as 29742 RLU and the “RLU 0 min.” value [1, 8] is reported as 26457 RLU. The “interference with the bioluminescent assay (conclusion in words)” value ([1]; PCMPSA alone, sample 5, buffer) was “does not substantially interfere”, the “inhibition of hexokinase (conclusion in words)” value ([2]; buffer) was “at least partly inhibited” and the “RLU 5 min.” value ([2]; hexokinase 0.14 U/ml, buffer) was 25884 RLU. The “RLU 10 min.” value ([2]; hexokinase 0.14 U/ml, buffer) was 23717 RLU, the “RLU 15 min.” value ([2]; hexokinase 0.14 U/ml, buffer) was 24771 RLU and the “RLU 5 min.” value ([2]; hexokinase 0.14 U, in SRA) was 15397 RLU. For the same compound, the “RLU 10 min.” value ([2]; hexokinase 0.14 U, in SRA) was 15221 RLU, the “RLU 5 min.” value ([2]; hexokinase 0.28 U/ml, buffer) was 19116 RLU and the “RLU 10 min.” value ([2]; hexokinase 0.28 U/ml, buffer) was 18228 RLU. The “RLU 15 min.” value ([2]; hexokinase 0.28 U/ml, buffer) was 16919 RLU, the “RLU 5 min.” value ([2]; hexokinase 0.28 U, in SRA) was 11674 RLU and the “RLU 10 min.” value ([2]; hexokinase 0.28 U, in SRA) was 12473 RLU. For the same compound, the “RLU 5 min.” value ([2]; hexokinase 0.70 U/ml, buffer) was 13353 RLU, the “RLU 10 min.” value ([2]; hexokinase 0.70 U/ml, buffer) was 11760 RLU and the “RLU 15 min.” value ([2]; hexokinase 0.70 U/ml, buffer) was 9375 RLU. The “RLU 5 min.” value ([2]; hexokinase 0.70 U, in SRA) was 4212 RLU, the “RLU 10 min.” value ([2]; hexokinase 0.70 U, in SRA) was 3011 RLU and the “inhibition of hexokinase (conclusion in words)” value ([2]; in the presence of SRA) was “sufficiently inhibited”. For the same compound, the “% Control” value [3, 9] was 91%, the RLU [3, 9] was 26407 RLU and the RLU ([3]; glycerokinase 0.42 U/ml, no glycerol (control)) was 28957 RLU. For the same compound, the “% Control” value [3, 10] was 78%, the RLU [3, 10] was 17213 RLU and the RLU ([3]; glycerokinase 1.04 U/ml, no glycerol (control)) was 21901 RLU. For the same compound, the “% Control” value [3, 11] was 58%, the RLU [3, 11] was 6404 RLU and the RLU ([3]; glycerokinase 2.06 U/ml, no glycerol (control)) was 15129 RLU. For the same compound, the “inhibition of glycerokinase (conclusion in words)” value ([3]; orange juice and milk, glycerokinase up to 4.25 U/ml) was “sufficient to inhibit even the highest concentrations of enzyme used”, the “RLU after 0 min” value [3, 12] was 142369 RLU and the “RLU after 5 min” value [3, 12] was 145464 RLU. For the same compound, the “RLU after 10 min” value [3, 12] was 150927 RLU, the “RLU after 20 min” value [3, 12] was 155082 RLU and the “RLU after 0 min” value [3, 13] was 152487 RLU. The “RLU after 5 min” value [3, 13] was 143354 RLU, the “RLU after 10 min” value [3, 13] was 132269 RLU and the “RLU after 20 min” value [3, 13] was 151899 RLU. The “RLU after 0 min” value [3, 14] was 116232 RLU, the “RLU after 5 min” value [3, 14] was 131999 RLU and the “RLU after 10 min” value [3, 14] was 123137 RLU. For the same compound, the “RLU after 20 min” value [3, 14] was 125784 RLU, the “RLU after 0 min” value [3, 15] was 1382 RLU and the “RLU after 5 min” value [3, 15] was 1494 RLU. The “RLU after 10 min” value [3, 15] was 1348 RLU, the “RLU after 20 min” value [3, 15] was 1280 RLU and the “RLU after 0 min” value [3, 16] was 829 RLU. The “RLU after 5 min” value [3, 16] was 1340 RLU, the “RLU after 10 min” value [3, 16] was 1342 RLU and the “RLU after 20 min” value [3, 16] was 1233 RLU. For the same compound, the “RLU after 0 min” value [3, 17] was 1173 RLU, the “RLU after 5 min” value [3, 17] was 1314 RLU and the “RLU after 10 min” value [3, 17] was 1374 RLU. The “RLU after 20 min” value [3, 17] was 1028 RLU, the “RLU 0 min.” value [4, 7] was 29494 RLU and the “RLU 10 min.” value [4, 8] was 25284 RLU. For the same compound, the “interference with the bioluminescent assay of ATP (conclusion in words)” value ([4]; PCMPSA alone, in SRA) was “only very slight interference, if at all”, the “inhibition of acetate kinase (conclusion in words)” value [5] was “fairly effective” and the “RLU 0 min.” value [5, 18] was 4878 RLU. The “RLU 5 min.” value [5, 18] was 2911 RLU, the “RLU 10 min.” value [5, 18] was 2263 RLU and the “RLU 15 min.” value [5, 18] was 2362 RLU.
In the case of apyrase, the “RLU after 0 min” value [6] is reported as 64594 RLU, the “RLU after 2.5 min.” value [6] is reported as 3272 RLU and the “RLU after 5 min” value [6] is reported as 1130 RLU. The “RLU after 20 min” value [6] was 243 RLU.
